These results are taken from paper PMC6965176, “Targeting Forward and Reverse EphB4/EFNB2 Signaling by a Peptide with Dual Functions” (Scientific Reports, 2020).

Non-standard residues stand in square brackets, D forms with d. No end group written: not given here.

Experiment [1] concerns EphB4 and Crk1 (MAPK14). As to the kind of experiment: EphB4 and Crk1 phosphorylation in A2780cp20 cells (IP/immunoblot). In kind it is cell-based, human. Conditions: 50 nM (BIDEN-AP equivalent), 24 h after 16 h serum-free (Fig. S7A). An excerpt: Next, we determined the phosphorylation of EphB4 and its downstream adaptor protein Crk1 (MAPK14) in lysates from human A2780cp20 ovarian cancer cells by immunoprecipitation with anti-EphB4 and anti-Crk1 antibodies followed by immunoblotting with phospho-specific antibodies. […] In comparison, Alexa647-labeled antagonist TNYL-RAW was excluded.
Figure 2 BIDEN-AP acts as an EphB4 agonist. (A) BIDEN-AP induced phosphorylation of EphB4 and the associated MAPK14 (Crk1). […] The uncropped blots are presented in Supplemental Figure 11. (B) BIDEN-AP inhibited A2780cp20 cell invasion compared to untreated controls (CTL). A modified Boyden transwell chamber coated with Matrigel was used. Representative data from three independent experiments using A2780cp20 cells are presented. Each experiment was repeated in triplicate. Data are shown as mean ± SD. ***p < 0.001 by unpaired, two-sided Student t-test. […]
calculated as Koff/Kon. […]
The capacity of BIDEN-AP to inhibit the binding of EFNB2 to EphB4 was assessed in a competitive binding assay. […] After each injection, the signal from the control flow cell was subtracted and the relative amount of EphB4 bound to EFNB2-Fc was recorded as the net response over the pre-injection baseline level. […]
The protein concentrations were determined by using a BCA Protein Assay Reagent kit (Pierce Biotechnology, Rockford, IL). […]
In general terms: Immunoblotting shows a protein as a band on a membrane.

In experiment [2] the test system is orthotopic A2780cp20-Luc ovarian tumors. As to the kind of experiment: Orthotopic A2780cp20-Luc ovarian cancer model.
Procedure: (A) Schema for in vivo orthotopic A2789cp20-Luc model and treatment. Female nude mice were intraperitoneally inoculated with A2789cp20-Luc tumor cells. Beginning on day 7 after inoculation, each mouse received 10 intraperitoneal injections of BIDEN-AP or CCPM-BIDEN-AP (bold arrows) at a dose 13 mg/kg/injection every other day for a total of 10 doses. Tumor growth was monitored by bioluminescence imaging (IVIS). (B,C) Representative bioluminescence images on day 28 after tumor cell inoculation (B) and corresponding quantification of signal intensity (C) of mice bearing orthotopic A2780cp20-Luc tumors (n = 4). (D,E) Tumor weight (D) and number of tumor nodules (E) per treatment group (n = 8). (F) Images of tumor nodules from each treatment group. Data are expressed as mean ± SD. *p < 0.05, **p < 0.01, ****p < 0.0001 by Student t-test. CTL, untreated controls.
Female athymic nude mice (NCr-nu) were obtained from Harlan Laboratories (Indianapolis, IN) at age 4 to 6 weeks and kept under sterile conditions. For all therapeutic experiments, groups of the mice were inoculated intraperitoneally with A2780cp20-Luc cells (1×10^6 cells/mouse). The mice were treated with BIDEN-AP or CCPM-BIDEN-AP at a dose of 13 mg equivalent drug/kg per injection for a total of 10 doses every other day starting on day 7 after tumor cell inoculation. Untreated mice were used as a control. On day 31, all mice were euthanized and necropsied, and their tumors were harvested. Tumor weight and number and location of tumor nodules were recorded. Tumor tissue was fixed in formalin for paraffin embedding, frozen in optimal cutting temperature medium for frozen slide preparation, or snap-frozen for lysate preparation.
On day 7, day 14, day 21, and day 28 after tumor inoculation, mice received a tail vein injection of D-luciferin (4 mg/kg) and their tumor burden was assessed by luciferase activity using the Xenogen IVIS-200 imaging system (Perkin Elmer, Shelton, CT). The bioluminescence imaging signal generated in mice was quantified using Living Image V.2.11 software and IGOR image analysis software (V.4.02 A; WaveMetrics, Portland, OR). The region of interest was manually selected, and the signal intensity was expressed in terms of the number of photons/s/cm^2.
incubated overnight at 4°C. After washing, the slides were incubated with Alexa488-conjugated goat anti-rabbit secondary antibody for 60 min. Slides were subjected to recombinant terminal
deoxynucleotidyl transferase (rTdT)–mediated dUTP nick-end labeling (TUNEL) by using the
DeadEnd Fluorometric TUNEL System assay kit (Promega) after CD31 staining by immersing
slides in 4% formaldehyde in PBS for 15 min. A 20 µg/mL proteinase K solution (Promega) was
added to each slide (100 µL per slide), and the slides were incubated at room temperature for 8-
10 min. Slides were washed twice with PBS, 100 µL equilibration buffer (Promega) was added to
each, and the slides were again incubated for 5-10 min. The slides were then labeled by adding
50 µL of fluorescein-12-dUTP as a substrate, and the rTdT was added. Each slide was covered
with a plastic coverslip to ensure even distribution of the labeling solution and incubated for 60
min at 37°C in a humidified chamber. The reaction was stopped by immersing slides in 2x SSC
solution (87.7g NaCl, 44.1g sodium citrate, pH 7.0, in 500 mL) for 15 min. After washing with PBS,

As for “CCPM-BIDEN-AP: nanoconjugate of BIDEN-AP with core-crosslinked polymeric micelles (CCPM) (TN[dY]LFSPNGPIARAW; also: conjugated to core-crosslinked polymeric micelles (CCPM))”, in experiment [1], the “EphB4 and Crk1 phosphorylation in vitro (agonist activity)” value is on record as “potent agonist activity”. The “bioluminescence signal intensity of tumors” value in experiment [2] (day 28 after inoculation, 13 mg/kg/injection i.p. every other day, 10 doses from day 7, n = 4 (Fig. 5A-C)) was “significantly reduced the bioluminescence signal intensity”. In addition, the “metastatic nodules, comparison of the two agents” value in experiment [2] (day 31, 13 mg/kg/injection i.p., 10 doses (Fig. 5E,F)) is “reduced metastatic nodules to a greater extent than BIDEN-AP”. Also, the “tumor growth in the peritoneum (tumor weight and number of metastatic nodules) versus controls” value in experiment [2] (day 31 after inoculation, 13 mg/kg/injection i.p., 10 doses, n = 8 (Fig. 5D)) is reported as “significantly reduced tumor growth in the peritoneum”. For the same substance, in experiment [2] (excised A2780cp20 tumors, CD31/TUNEL co-staining, versus untreated control (Fig. 6A-C)), the “apoptotic cell death in CD31+ endothelial vasculature within tumor stroma” value is reported as “induced apoptotic cell death”. Besides, in experiment [2] (excised A2780cp20 tumors, CD31 staining (Fig. 6A-C)), the “angiogenesis in tumors (microvessel density)” value is “suppressed angiogenesis in tumors”. In addition, the “tumor cell proliferation (Ki67-positive cells)” value in experiment [2] (excised A2780cp20 tumors, Ki67 IHC (Fig. 6D,E)) is listed as “significantly reduced tumor cell proliferation”. Moreover, the “EphB4 and Crk1 phosphorylation in vivo in tumors” value in experiment [2] (orthotopic A2780cp20 tumors of treated mice, IP/immunoblot (Fig. S7B)) is “induce EphB4 and Crk1 phosphorylation”.
